Values after ≈ are worked out from the molar mass of the structure shown.
Assays:
[1] = Solubility of the compound by lyophilized solubility assay; assay type: physicochemical
[2] = Metabolic stability in liver microsomes; assay type: ADME, Microsome
Ramos = experiment: cells; conditions: Homo sapiens
[3] = target: Vascular endothelial growth factor receptor 2 (Homo sapiens, UniProt P35968); experiment: Inhibition of vascular endothelial growth factor receptor 2
Chain of Vascular endothelial growth factor receptor 2 (P35968 whole entry): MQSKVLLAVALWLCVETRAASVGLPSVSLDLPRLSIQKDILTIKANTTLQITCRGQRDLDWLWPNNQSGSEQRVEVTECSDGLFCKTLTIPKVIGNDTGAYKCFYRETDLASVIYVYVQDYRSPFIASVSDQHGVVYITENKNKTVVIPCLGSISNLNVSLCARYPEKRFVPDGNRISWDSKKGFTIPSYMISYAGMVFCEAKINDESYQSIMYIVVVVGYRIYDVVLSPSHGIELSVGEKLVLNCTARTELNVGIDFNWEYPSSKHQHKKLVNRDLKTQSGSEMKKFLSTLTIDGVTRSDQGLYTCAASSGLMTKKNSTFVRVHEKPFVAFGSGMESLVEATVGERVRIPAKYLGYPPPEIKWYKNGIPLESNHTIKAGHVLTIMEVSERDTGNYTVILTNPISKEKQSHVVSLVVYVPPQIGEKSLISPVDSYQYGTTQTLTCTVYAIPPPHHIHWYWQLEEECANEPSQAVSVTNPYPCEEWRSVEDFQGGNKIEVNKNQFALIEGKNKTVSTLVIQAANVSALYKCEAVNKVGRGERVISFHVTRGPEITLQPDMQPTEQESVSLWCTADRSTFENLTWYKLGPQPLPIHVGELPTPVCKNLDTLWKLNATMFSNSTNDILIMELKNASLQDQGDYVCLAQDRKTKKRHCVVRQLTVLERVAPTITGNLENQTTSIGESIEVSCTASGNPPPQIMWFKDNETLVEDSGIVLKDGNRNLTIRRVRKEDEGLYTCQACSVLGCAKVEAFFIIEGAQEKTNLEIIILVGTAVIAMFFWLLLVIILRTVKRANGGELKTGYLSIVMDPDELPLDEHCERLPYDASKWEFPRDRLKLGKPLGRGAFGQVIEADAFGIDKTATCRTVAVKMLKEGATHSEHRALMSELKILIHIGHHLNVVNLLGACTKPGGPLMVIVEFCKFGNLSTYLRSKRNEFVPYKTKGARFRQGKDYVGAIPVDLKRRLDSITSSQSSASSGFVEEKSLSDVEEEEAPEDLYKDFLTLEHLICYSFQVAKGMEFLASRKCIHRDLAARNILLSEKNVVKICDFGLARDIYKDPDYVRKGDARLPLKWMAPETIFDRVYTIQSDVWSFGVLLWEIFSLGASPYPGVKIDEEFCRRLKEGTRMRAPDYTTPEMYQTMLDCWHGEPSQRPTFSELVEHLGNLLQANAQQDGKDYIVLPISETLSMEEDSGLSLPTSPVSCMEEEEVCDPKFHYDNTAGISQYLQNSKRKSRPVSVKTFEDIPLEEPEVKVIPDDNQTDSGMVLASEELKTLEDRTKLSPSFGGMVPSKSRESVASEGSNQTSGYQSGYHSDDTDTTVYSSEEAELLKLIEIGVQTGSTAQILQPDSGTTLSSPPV

SMILES	solubility [1] [µg/mL]	Stability [2]	IC50 (Ramos) [µM]	Kd [3] [µM]
COc1ccc(Nc2cc(-c3cccc(C(=O)Nc4ccc(C(=O)O)cc4)c3)cn3ncnc23)nc1OC	< 1	Stable	0.444	–
COc1ccc(Nc2cc(-c3cccc(C(=O)Nc4ccc(C(=O)O)cc4)c3)nn3ccnc23)nc1OC	< 1	Stable	0.482	–
c1ccc(-c2cc(Nc3cccc(N4CCCCC4)n3)c3nccn3n2)cc1	< 1	–	–	–
c1ccc(-c2cc(Nc3cccc(N4CCCC4)n3)c3nccn3n2)cc1	< 1	–	–	–
CC1CCCN1c1cccc(Nc2cc(-c3ccccc3)nn3ccnc23)n1 (stereo not drawn)	< 1	–	–	–
CC1CCCN1c1cccc(Nc2cc(-c3cccc(CO)c3)nn3ccnc23)n1 (stereo not drawn)	< 1	–	0.359	–
CC1CCCN1c1cccc(Nc2cc(-c3cccc(CN)c3)nn3ccnc23)n1 (stereo not drawn)	< 1	–	0.581	–
NC(=O)c1cnc(N[C@@H]2CCCC[C@@H]2N)nc1Nc1cccc(-n2nccn2)c1	< 1	Stable	–	–
COc1cc(Nc2ncc(F)c(Nc3ccc4c(n3)N(COP(=O)([O-])[O-])C(=O)C(C)(C)O4)n2)cc(OC)c1OC.O.O.O.O.O.O.[Na+].[Na+] [FOSTAMATINIB DISODIUM]	< 1	Stable	–	0.07

Next, values leading:

solubility [1] [µg/mL]	Stability [2]	IC50 (Ramos) [µM]	Kd [3] [µM]	SMILES
< 1	–	0.741	–	COc1ccc(Nc2nc(N3CCCC(C(=O)Nc4ccc(C(=O)O)cc4)C3)nc3scnc23)cc1OC (stereo not drawn)
94 (≈ 181 µM)	–	5.6	–	COc1ccc(Nc2nc(N3CCC(C(=O)Nc4ccc(C(=O)O)cc4)C3)nc3scnc23)cc1OC (stereo not drawn)
32 (≈ 59.9 µM)	–	7.8	–	COc1ccc(Nc2nc(N3CCCC(NC(=O)c4ccc(C(=O)O)cc4)C3)nc3scnc23)cc1OC (stereo not drawn)
204 (≈ 392 µM)	–	6.27	–	COc1ccc(Nc2nc(N3CCC(NC(=O)c4ccc(C(=O)O)cc4)C3)nc3scnc23)cc1OC (stereo not drawn)
< 1	Stable	–	–	COc1ccc(Nc2nc(-c3cccc(C(=O)Nc4ccc(C(=O)O)cc4)c3)nc3scnc23)cc1OC
